Data from patent US6737383B1, “Herbicidal oxadiazolidines” (priority 1999, dated 2004).

Assays:
Details in all cases: Preemergence, 0 to 100 scale
Alexandergrass = experiment: Test D Alexandergrass; type: in vivo, Brachiaria plantaginea
Procedure, shortened: (§1)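 Visual injury ratings, 0 = no injury to 100 = complete control, taken 14 to 21 days after treatment. Test chemicals were in a surfactant-containing non-phytotoxic solvent; preemergence treatments went onto the sandy loam surface of seeded greenhouse pots within one day of sowing.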

common pursiane = experiment: Test D common purslane; type: in vivo, Portulaca oleracea
Procedure, shortened: as §1

common ragweed = experiment: Test D common ragweed; type: in vivo, Ambrosia elatior
Procedure, shortened: as §1

common groundsel = experiment: Test D common groundsel; type: in vivo, Senecio vulgaris
Description: (§2) Seeds, tubers, or plant parts of Alexandergrass (Brachiaria plantaginea), bermuda-grass (Cynodon dactylon), common pursiane (Portulaca oleracea), common ragweed (Ambrosia elatior), common groundsel (Senecio vulgaris), dallisgrass (Paspalum dilatatum), goosegrass (Eleusine indica), guineagrass (Panicum maximum), itchgrass (Rottboellia exaltata), Johnson grass (Sorghum halepense), large crabgrass (Digitaria sanguinalis), pitted morningglory (Ipomoea lacunosa), purple nutsedge (Cyperus rotundus), sandbur (Cenchrus echinatus), sourgrass (Trichachne insularis), Spanishneedles (Bidens bipinnata), surinam grass (Brachiaria decumbens) and tall mallow (Malva sylvestris) were planted into greenhouse pots of flats containing greenhouse planting medium. Plant species were grown in separate pots or individual compartments. Preemergence applications were made within one day of planting the seed or plant part.
(§3) Test chemicals were formulated in a non-phytotoxic solvent mixture which included a surfactant and applied preemergence to the surface of the pot containing seeds in a sandy loam soil. Untreated control pots and treated pots were placed in the greenhouse for growth and visually evaluated for injury 14 to 21 days after herbicide application. Plant response ratings, summarized in Table C, are based on a 0 to 100 scale where 0 is no injury and 100 is complete control. A dash (−) response means no test result.

dallisgrass = experiment: Test D dallisgrass; type: in vivo, Paspalum dilatatum
Procedure, shortened: as §1

goosegrass = experiment: Test D goosegrass; type: in vivo, Eleusine indica
Procedure, shortened: as §1

guineagrass = experiment: Test D guineagrass; type: in vivo, Panicum maximum
Procedure, shortened: as §1

Johnson grass = experiment: Test D Johnson grass; type: in vivo, Sorghum halepense
Procedure, shortened: as §1

large crabgrass = experiment: Test D large crabgrass; type: in vivo, Digitaria sanguinalis
Procedure, shortened: as §1

purple nutsedge = experiment: Test D purple nutsedge; type: in vivo, Cyperus rotundus
Procedure, shortened: as §1

sandbur = experiment: Test D sandbur; type: in vivo, Cenchrus echinatus
Procedure, shortened: as §1

surinam grass = experiment: Test D surinam grass; type: in vivo, Brachiaria decumbens
Procedure, shortened: as §1

tall mallow = experiment: Test D tall mallow; type: in vivo, Malva sylvestris
Procedure, shortened: as §1

Green foxtail = experiment: Test D green foxtail; type: in vivo
Description: as §2, §3

[1] = Rate 16 g/ha, 0 no injury, 100 complete control
[2] = Rate 32 g/ha, 0 no injury, 100 complete control
[3] = Rate 64 g/ha, 0 no injury, 100 complete control
[4] = Rate 125 g/ha, 0 no injury, 100 complete control

In the case of `Cc1cccc(C)c1-n1c(=O)on(C(=O)N(c2ccccc2)C(C)C)c1=O` [Compound 46], the “Plant response rating, Alexandergrass” value (Alexandergrass; [1]) is reported as 0, the “Plant response rating, Alexandergrass” value (Alexandergrass; [2]) is reported as 0 and the “Plant response rating, Alexandergrass” value (Alexandergrass; [3]) is reported as 40. The “Plant response rating, Alexandergrass” value (Alexandergrass; [4]) was 65, the “Plant response rating, Alexandergrass” value (Alexandergrass; Rate 250 g/ha) was 75 and the “Plant response rating, Alexandergrass” value (Alexandergrass; Rate 500 g/ha) was 80. The “Plant response rating, C. purslane” value (common pursiane; [1]) was 0, the “Plant response rating, C. purslane” value (common pursiane; [2]) was 0 and the “Plant response rating, C. purslane” value (common pursiane; [3]) was 0. For the same compound, the “Plant response rating, C. purslane” value (common pursiane; [4]) was 0, the “Plant response rating, C. purslane” value (common pursiane; Rate 250 g/ha) was 0 and the “Plant response rating, C. purslane” value (common pursiane; Rate 500 g/ha) was 0. For the same compound, the “Plant response rating, C. ragweed” value (common ragweed; [1]) was 0, the “Plant response rating, C. ragweed” value (common ragweed; [2]) was 0 and the “Plant response rating, C. ragweed” value (common ragweed; [3]) was 0. The “Plant response rating, C. ragweed” value (common ragweed; [4]) was 0, the “Plant response rating, C. ragweed” value (common ragweed; Rate 250 g/ha) was 0 and the “Plant response rating, C. ragweed” value (common ragweed; Rate 500 g/ha) was 0. For the same compound, the “Plant response rating, Com. groundsel” value (common groundsel; [1]) was 0, the “Plant response rating, Com. groundsel” value (common groundsel; [2]) was 0 and the “Plant response rating, Com. groundsel” value (common groundsel; [3]) was 0. For the same compound, the “Plant response rating, Com. groundsel” value (common groundsel; [4]) was 0, the “Plant response rating, Com. groundsel” value (common groundsel; Rate 250 g/ha) was 0 and the “Plant response rating, Com. groundsel” value (common groundsel; Rate 500 g/ha) was 0. The “Plant response rating, Dallisgrass” value (dallisgrass; [1]) was 20, the “Plant response rating, Dallisgrass” value (dallisgrass; [2]) was 40 and the “Plant response rating, Dallisgrass” value (dallisgrass; [3]) was 40. For the same compound, the “Plant response rating, Dallisgrass” value (dallisgrass; [4]) was 100, the “Plant response rating, Dallisgrass” value (dallisgrass; Rate 250 g/ha) was 100 and the “Plant response rating, Dallisgrass” value (dallisgrass; Rate 500 g/ha) was 100. For the same compound, the “Plant response rating, Goosegrass” value (goosegrass; [1]) was 0, the “Plant response rating, Goosegrass” value (goosegrass; [2]) was 20 and the “Plant response rating, Goosegrass” value (goosegrass; [3]) was 75. The “Plant response rating, Goosegrass” value (goosegrass; [4]) was 85, the “Plant response rating, Goosegrass” value (goosegrass; Rate 250 g/ha) was 98 and the “Plant response rating, Goosegrass” value (goosegrass; Rate 500 g/ha) was 100. For the same compound, the “Plant response rating, Guineagrass” value (guineagrass; [1]) was 0, the “Plant response rating, Guineagrass” value (guineagrass; [2]) was 0 and the “Plant response rating, Guineagrass” value (guineagrass; [3]) was 30. For the same compound, the “Plant response rating, Guineagrass” value (guineagrass; [4]) was 30, the “Plant response rating, Guineagrass” value (guineagrass; Rate 250 g/ha) was 65 and the “Plant response rating, Guineagrass” value (guineagrass; Rate 500 g/ha) was 85. For the same compound, the “Plant response rating, Johnsongrass” value (Johnson grass; [1]) was 0, the “Plant response rating, Johnsongrass” value (Johnson grass; [2]) was 0 and the “Plant response rating, Johnsongrass” value (Johnson grass; [3]) was 0. For the same compound, the “Plant response rating, Johnsongrass” value (Johnson grass; [4]) was 40, the “Plant response rating, Johnsongrass” value (Johnson grass; Rate 250 g/ha) was 40 and the “Plant response rating, Johnsongrass” value (Johnson grass; Rate 500 g/ha) was 60. For the same compound, the “Plant response rating, Large crabgrass” value (large crabgrass; [1]) was 0, the “Plant response rating, Large crabgrass” value (large crabgrass; [2]) was 20 and the “Plant response rating, Large crabgrass” value (large crabgrass; [3]) was 40. For the same compound, the “Plant response rating, Large crabgrass” value (large crabgrass; [4]) was 98, the “Plant response rating, Large crabgrass” value (large crabgrass; Rate 250 g/ha) was 100 and the “Plant response rating, Large crabgrass” value (large crabgrass; Rate 500 g/ha) was 100. The “Plant response rating, Purple nutsedge” value (purple nutsedge; [1]) was 0, the “Plant response rating, Purple nutsedge” value (purple nutsedge; [2]) was 0 and the “Purple nutsedge plant response rating” value (purple nutsedge; [3]) was 0. For the same compound, the “Purple nutsedge plant response rating” value (purple nutsedge; [4]) was 0, the “Plant response rating, Purple nutsedge” value (purple nutsedge; Rate 250 g/ha) was 0 and the “Plant response rating, Purple nutsedge” value (purple nutsedge; Rate 500 g/ha) was 0. The “Plant response rating, Sandbur” value (sandbur; [1]) was 0, the “Plant response rating, Sandbur” value (sandbur; [2]) was 0 and the “Sandbur plant response rating” value (sandbur; [3]) was 0. The “Sandbur plant response rating” value (sandbur; [4]) was 0, the “Plant response rating, Sandbur” value (sandbur; Rate 250 g/ha) was 0 and the “Plant response rating, Sandbur” value (sandbur; Rate 500 g/ha) was 0. For the same compound, the “Plant response rating, Surinam grass” value (surinam grass; [1]) was 0, the “Plant response rating, Surinam grass” value (surinam grass; [2]) was 0 and the “Surinam grass plant response rating” value (surinam grass; [3]) was 0. The “Surinam grass plant response rating” value (surinam grass; [4]) was 0, the “Plant response rating, Surinam grass” value (surinam grass; Rate 250 g/ha) was 10 and the “Plant response rating, Surinam grass” value (surinam grass; Rate 500 g/ha) was 30. For the same compound, the “Plant response rating, Tall Mallow” value (tall mallow; [1]) was 0, the “Plant response rating, Tall Mallow” value (tall mallow; [2]) was 0 and the “Tall Mallow plant response rating” value (tall mallow; [3]) was 0. The “Tall Mallow plant response rating” value (tall mallow; [4]) was 10, the “Plant response rating, Tall Mallow” value (tall mallow; Rate 250 g/ha) was 10 and the “Plant response rating, Tall Mallow” value (tall mallow; Rate 500 g/ha) was 10. The “Plant response rating, Green foxtail” value (Green foxtail; Rate 250 g/ha) was 100 and the “Plant response rating, Green foxtail” value (Green foxtail; Rate 500 g/ha) was 100.
